Laboratory results taken from US8541394B2, “Aminoglycoside antibiotics” (Meiji Seika Pharma Co., Ltd., priority 2006, dated 2013).
≈ marks a conversion by molar mass, not a printed value.

Key:
[1] = tested on: kidney of normal mice; details: mouse, in vivo; for Amount of NAG in urine: ip, 120 mg/kg/day
Protocol: An evaluation system of influence on the kidney was constructed based on renal disease model preparation method using gentamicin (KIDNEY AND DIALYSIS, Vol. 31, 1991, extra edition, “Renal Disease Model”, p. 423 “Drug-induced Renal Damage and its Examination Method,” Kidney and Dialysis Editorial Committee, published by TOKYOIGAKUSYA). The influence of the compound represented by formula (I) produced in Example 1 on the kidney was evaluated using this evaluation system. A physiological saline administration group and an arbekacin administration group were set as control groups. Each group consisted of four mice (Crj: CD-1 (ICR) female mice of eight weeks old).
In the above evaluation system, the evaluation of nephrotoxicity was carried out using NAG as an index. NAG exists in lysosome in each tissue of humans and animals, is an enzyme, which converts a mucopolysaccharide to a glycoprotein, for example, converts β-N-acetyl-D-glucosaminide to β-N-acetyl-D-glucosamine, and is plentifully present in proximal uriniferous tubule epithelial cells of the kidney in which aminoglycoside antibiotics are particularly accumulated. When the kidney, especially its proximal uriniferous tubule is damaged, NAG is released into urine to increase the amount of NAG in the urine. Accordingly, the increase in the amount of NAG in urine is considered to reflect proximal uriniferous tubule damage and is adopted as one of biochemical markers for estimating the level of renal insufficiency in clinical test items. The amount of NAG is measured by an examination method, for example, an MCP-NAG method (Outline of Latest Internal Medicine, Vol. 4, Clinical Laboratory—Kensa No Susumekata To Deta No Yomikata (How To Forward Examination and How To Read Data)—<Naika Soron 4 (General Remarks Of Internal Medicine 4> p. 274, Imura et al. (ed.), published by Nakayama Syoten Co., Ltd., 1994).
A solution of physiological saline of the compound according to the present invention having a concentration of 12 mg/mL was administered to the mice in each group at a dose of 120 mg/kg/day (in two divided doses; morning and afternoon) for 4 days by repeated intraperitoneal administration. Naturally excreted urine was collected for about 24 hr from the completion of the administration in the morning on day 4, and the amount of NAG in the urine was measured by the MCP-NAG method. The same treatment was carried out for the physiological saline administration group and the arbekacin administration group.
The influence of arbekacin and an arbekacin analogue TS2037 (5,4″-diepiarbekacin) produced according to the description of WO 2005/070945 on the kidney was evaluated in the same manner as in Test Example 3. […]

[2] = tested on: proximal uriniferous tubule epithelial cells of the kidney of pigs; details: pig kidney proximal uriniferous tubule epithelial cells; compared with arbekacin; 44th ICAAC (2004) subject No. F-716; cited from earlier work
[3] = tested on: clinically isolated MRSA strain (n=9), which has low sensitivity to arbekacin; assay: Antimicrobial activity (MIC), agar plate dilution method, MRSA with low sensitivity to arbekacin; format: cell-based, methicillin-resistant Staphylococcus aureus (MRSA); details: Staphylococcus aureus, clinically isolated MRSA strain (n=9) with low sensitivity to arbekacin, read-out: minimal inhibitory concentration (MIC)
Protocol: MIC of the compound represented by formula (I) produced in Example 1 against an MRSA strain, specifically a clinically isolated MRSA strain (n=9), which has low sensitivity to arbekacin and against which the minimal inhibitory concentration (MIC, μg/mL) is 4 to 8, was measured by an agar plate dilution method according to the standard method of Japan Society of Chemotherapy (Chemotherapy, Vol. 29, pp. 76 to 79, 1981).

[4] = tested on: clinically isolated MRSA strain, which has high resistance to arbekacin; assay: Antimicrobial activity (MIC), agar plate dilution method, MRSA with high resistance to arbekacin; format: cell-based, methicillin-resistant Staphylococcus aureus (MRSA); details: Staphylococcus aureus, different from Test Example 1

NCC[C@H](O)C(=O)NC1C[C@H](N)C(O[C@H]2OC(CN)CCC2N)C(O)[C@H]1O[C@H]1OC(CO)[C@H](O)C(N)C1O (some centres unmarked) [TS2037, 5,4″-diepiarbekacin]
amount of NAG in the urine [1]: 358.8 mIU
nephrotoxicity using NAG as an index [2]: higher than that of arbekacin

NCC[C@H](O)C(=O)NC1C(O)[C@H](N)C(O[C@H]2OC(CN)CCC2N)C(O)[C@H]1O[C@H]1OC(CO)[C@@H](O)C(N)C1O (stereo in doubt) [Compound represented by formula (I), 2-Hydroxyarbekacin]
Amount of NAG in urine [1]: 74.7 mIU
MIC [3]: 0.5 to 2 µg/mL

NCC[C@H](O)C(=O)N[C@@H]1C[C@H](N)[C@@H](O[C@H]2O[C@H](CN)CC[C@H]2N)[C@H](O)[C@H]1O[C@H]1O[C@H](CO)[C@@H](O)[C@H](N)[C@H]1O [Arbekacin, (S)-1-N-(4-amino-2-hydroxybutyryl)dibekacin]
amount of NAG in the urine [1]: 168.5 mIU
Amount of NAG in urine [1]: 135.0 mIU
MIC [4]: 128 µg/mL (≈ 232 µM)
MIC [3]: 4 to 8 µg/mL (≈ 7.24 to 14.5 µM)
